{"source": "ChEMBL document CHEMBL5696439", "about": "(Cancer Res, 2010)", "key": {"[1]": {"biological_target": "Phosphatidylinositol 4,5-bisphosphate 3-kinase catalytic subunit gamma isoform (Homo sapiens, UniProt P48736)", "assay": "Inhibition of PI3Kgamma (unknown origin) using PIP2 as substrate measured after 15 to 30 mins by fluorescence polarization assay"}, "[2]": {"biological_target": "Calcium/calmodulin-dependent protein kinase type II subunit delta (Homo sapiens) (UniProt Q13557)", "assay": "Inhibition of recombinant human full-length His-tagged CAMK2D expressed in insect cells at 2 uM using Ser/Thr 04 as substrate measured after 1 hr by Z'-LYTE assay relative to control", "details": "Insect cell"}, "[3]": {"biological_target": "Casein kinase II subunit alpha (Homo sapiens) (UniProt P68400)", "assay": "Inhibition of recombinant human full-length His-tagged CSNK2A1 expressed in baculovirus expression system at 2 uM using Ser/Thr 11 as substrate measured after 1 hr by Z'-LYTE assay relative to control"}, "[4]": {"biological_target": "Ephrin type-A receptor 5 (Homo sapiens) (UniProt P54756)", "sequence (P54756 whole entry, the tested form may be a part)": "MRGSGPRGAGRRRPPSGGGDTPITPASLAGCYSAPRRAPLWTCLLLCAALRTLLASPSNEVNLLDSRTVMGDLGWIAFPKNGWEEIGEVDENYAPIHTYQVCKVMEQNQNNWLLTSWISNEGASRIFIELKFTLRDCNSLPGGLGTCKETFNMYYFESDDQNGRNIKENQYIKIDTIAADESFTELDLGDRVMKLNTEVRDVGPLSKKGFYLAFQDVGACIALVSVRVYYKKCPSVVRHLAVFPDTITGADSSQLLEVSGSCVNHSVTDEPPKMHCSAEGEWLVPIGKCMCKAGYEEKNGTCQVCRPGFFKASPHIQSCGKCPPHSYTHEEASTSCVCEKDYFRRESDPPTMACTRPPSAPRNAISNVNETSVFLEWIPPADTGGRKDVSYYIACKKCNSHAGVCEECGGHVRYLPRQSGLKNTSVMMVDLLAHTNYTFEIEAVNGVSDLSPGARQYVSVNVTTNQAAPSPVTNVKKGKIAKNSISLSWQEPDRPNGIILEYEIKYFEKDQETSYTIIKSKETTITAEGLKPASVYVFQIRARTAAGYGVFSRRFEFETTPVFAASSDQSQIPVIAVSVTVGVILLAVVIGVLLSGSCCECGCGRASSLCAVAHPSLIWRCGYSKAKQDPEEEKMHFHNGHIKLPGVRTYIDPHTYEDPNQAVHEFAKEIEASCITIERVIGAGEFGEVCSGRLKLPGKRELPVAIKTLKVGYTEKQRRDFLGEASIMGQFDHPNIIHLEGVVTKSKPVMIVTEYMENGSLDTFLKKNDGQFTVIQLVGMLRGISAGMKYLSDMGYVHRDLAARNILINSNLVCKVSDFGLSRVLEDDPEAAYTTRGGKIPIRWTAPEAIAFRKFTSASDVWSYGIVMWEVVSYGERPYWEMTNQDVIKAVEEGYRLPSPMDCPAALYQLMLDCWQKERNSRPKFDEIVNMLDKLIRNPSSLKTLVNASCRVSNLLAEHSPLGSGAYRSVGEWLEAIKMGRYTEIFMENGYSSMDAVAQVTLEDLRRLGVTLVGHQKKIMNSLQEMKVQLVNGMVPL", "assay": "Inhibition of recombinant human GST-tagged EPHA5 (595-1037 residues) expressed in insect cells at 2 uM using Tyr 01 as substrate measured after 1 hr by Z'-LYTE assay relative to control", "details": "Insect cell"}, "[5]": {"biological_target": "Receptor tyrosine-protein kinase erbB-2 (Homo sapiens) (UniProt P04626)", "assay": "Inhibition of recombinant human His-tagged ERBB2 (676-1255 residues) expressed in insect cells at 2 uM using Tyr 06 as substrate measured after 1 hr by Z'-LYTE assay relative to control", "details": "Insect cell"}, "[6]": {"biological_target": "Fibroblast growth factor receptor 3 (Homo sapiens) (UniProt P22607)", "assay": "Inhibition of recombinant human His-tagged FGFR3 (399-806 residues) expressed in insect cells at 2 uM using Tyr 04 as substrate measured after 1 hr by Z'-LYTE assay relative to control", "details": "Insect cell"}, "[7]": {"biological_target": "G protein-coupled receptor kinase 4 (Homo sapiens) (UniProt P32298)", "sequence (P32298 whole entry, looked up)": "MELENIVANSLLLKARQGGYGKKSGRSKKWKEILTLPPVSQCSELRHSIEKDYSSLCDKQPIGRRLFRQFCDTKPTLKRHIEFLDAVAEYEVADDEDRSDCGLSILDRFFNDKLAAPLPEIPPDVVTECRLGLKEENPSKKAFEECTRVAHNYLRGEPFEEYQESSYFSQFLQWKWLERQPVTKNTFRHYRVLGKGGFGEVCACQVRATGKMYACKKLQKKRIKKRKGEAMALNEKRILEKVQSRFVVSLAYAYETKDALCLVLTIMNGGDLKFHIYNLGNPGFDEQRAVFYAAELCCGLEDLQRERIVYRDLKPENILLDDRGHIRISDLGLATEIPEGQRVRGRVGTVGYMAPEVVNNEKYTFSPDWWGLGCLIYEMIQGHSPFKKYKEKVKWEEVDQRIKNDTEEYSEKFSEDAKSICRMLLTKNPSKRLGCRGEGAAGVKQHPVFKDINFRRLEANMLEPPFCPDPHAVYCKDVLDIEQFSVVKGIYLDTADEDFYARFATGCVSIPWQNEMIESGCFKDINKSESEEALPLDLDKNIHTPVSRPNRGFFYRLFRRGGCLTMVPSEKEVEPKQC", "assay": "Inhibition of recombinant human full-length GST-tagged GRK4 expressed in insect cells at 2 uM using Ser/Thr 16 as substrate measured after 1 hr by Z'-LYTE assay relative to control", "details": "Insect cell"}, "[8]": {"biological_target": "Homeodomain-interacting protein kinase 1 (Homo sapiens) (UniProt Q86Z02)", "sequence (Q86Z02 whole entry, looked up, the tested form may be a part)": "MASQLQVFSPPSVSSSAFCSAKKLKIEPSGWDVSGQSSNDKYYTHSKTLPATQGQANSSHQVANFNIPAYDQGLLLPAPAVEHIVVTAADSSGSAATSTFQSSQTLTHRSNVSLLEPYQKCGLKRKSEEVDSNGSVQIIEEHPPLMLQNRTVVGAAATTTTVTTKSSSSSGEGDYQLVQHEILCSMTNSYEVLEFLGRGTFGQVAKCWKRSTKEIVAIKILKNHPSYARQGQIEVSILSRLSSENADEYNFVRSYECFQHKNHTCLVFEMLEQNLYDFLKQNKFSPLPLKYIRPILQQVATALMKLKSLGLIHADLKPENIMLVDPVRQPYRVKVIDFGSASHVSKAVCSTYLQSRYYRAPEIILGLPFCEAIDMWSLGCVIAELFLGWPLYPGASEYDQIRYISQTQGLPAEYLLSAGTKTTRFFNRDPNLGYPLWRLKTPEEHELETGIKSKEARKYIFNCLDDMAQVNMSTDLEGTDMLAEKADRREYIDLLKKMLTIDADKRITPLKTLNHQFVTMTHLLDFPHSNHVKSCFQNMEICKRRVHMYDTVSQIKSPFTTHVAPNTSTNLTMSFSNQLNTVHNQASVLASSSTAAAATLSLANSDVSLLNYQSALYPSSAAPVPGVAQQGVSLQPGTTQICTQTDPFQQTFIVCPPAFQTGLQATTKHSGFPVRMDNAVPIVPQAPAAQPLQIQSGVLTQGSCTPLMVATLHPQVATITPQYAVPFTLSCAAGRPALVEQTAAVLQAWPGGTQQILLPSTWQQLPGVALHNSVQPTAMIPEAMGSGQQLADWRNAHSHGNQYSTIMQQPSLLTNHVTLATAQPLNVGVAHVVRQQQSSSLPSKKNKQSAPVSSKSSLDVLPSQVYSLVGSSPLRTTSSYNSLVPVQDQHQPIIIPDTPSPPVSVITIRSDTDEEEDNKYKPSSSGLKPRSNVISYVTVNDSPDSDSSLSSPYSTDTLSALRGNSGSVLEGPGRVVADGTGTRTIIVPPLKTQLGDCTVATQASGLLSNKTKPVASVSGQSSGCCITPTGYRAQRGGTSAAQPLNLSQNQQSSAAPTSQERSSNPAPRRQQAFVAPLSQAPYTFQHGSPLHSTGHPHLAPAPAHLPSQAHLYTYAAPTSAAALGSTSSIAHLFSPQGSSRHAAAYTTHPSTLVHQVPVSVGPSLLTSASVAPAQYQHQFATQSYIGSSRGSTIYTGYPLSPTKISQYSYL", "assay": "Inhibition of recombinant human GST-tagged HIPK1 (158-555 residues) expressed in insect cells at 2 uM using Ser/Thr 09 as substrate measured after 1 hr by Z'-LYTE assay relative to control", "details": "Insect cell"}, "[9]": {"biological_target": "Interleukin-1 receptor-associated kinase 4 (Homo sapiens) (UniProt Q9NWZ3)", "sequence (Q9NWZ3 whole entry)": "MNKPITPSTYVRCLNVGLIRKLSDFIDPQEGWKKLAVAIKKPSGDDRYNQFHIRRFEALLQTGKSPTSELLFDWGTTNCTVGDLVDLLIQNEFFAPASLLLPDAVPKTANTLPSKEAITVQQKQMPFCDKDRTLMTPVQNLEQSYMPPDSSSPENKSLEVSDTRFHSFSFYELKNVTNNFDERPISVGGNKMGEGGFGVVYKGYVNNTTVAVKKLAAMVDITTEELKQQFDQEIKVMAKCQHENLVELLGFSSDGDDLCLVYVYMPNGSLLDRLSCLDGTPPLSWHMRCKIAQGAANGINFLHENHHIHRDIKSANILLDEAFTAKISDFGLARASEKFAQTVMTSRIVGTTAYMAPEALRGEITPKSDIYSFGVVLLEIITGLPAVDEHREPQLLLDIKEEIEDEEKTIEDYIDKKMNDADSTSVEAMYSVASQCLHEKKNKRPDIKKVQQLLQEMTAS", "assay": "Inhibition of recombinant human full-length His-tagged IRAK4 expressed in insect cells at 2 uM using Ser/Thr 07 as substrate measured after 1 hr by Z'-LYTE assay relative to control", "details": "Insect cell"}, "[10]": {"biological_target": "Vascular endothelial growth factor receptor 2 (Homo sapiens) (UniProt P35968)", "assay": "Inhibition of recombinant human His-tagged KDR (789-1356 residues) expressed in insect cells at 2 uM using […] as substrate measured after 1 hr by Z'-LYTE assay relative to control", "details": "Insect cell"}, "[11]": {"biological_target": "Mitogen-activated protein kinase 14 (Homo sapiens) (UniProt Q16539)", "sequence (Q16539 whole entry)": "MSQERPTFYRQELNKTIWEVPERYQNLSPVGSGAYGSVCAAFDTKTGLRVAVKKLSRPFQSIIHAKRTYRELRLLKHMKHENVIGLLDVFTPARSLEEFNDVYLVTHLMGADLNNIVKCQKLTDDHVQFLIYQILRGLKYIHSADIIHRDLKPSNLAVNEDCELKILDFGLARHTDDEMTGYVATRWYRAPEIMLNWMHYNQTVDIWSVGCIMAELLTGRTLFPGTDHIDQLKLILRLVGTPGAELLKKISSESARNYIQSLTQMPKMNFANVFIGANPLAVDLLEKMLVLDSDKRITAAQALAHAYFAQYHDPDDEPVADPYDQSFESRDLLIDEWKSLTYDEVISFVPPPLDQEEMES", "assay": "Inhibition of recombinant human full length GST-tagged MAPK14 expressed in E. coli at 2 uM using Ser/Thr 04 as substrate measured after 1 hr by Z'-LYTE assay relative to control"}, "[12]": {"biological_target": "Serine/threonine-protein kinase MARK2 (Homo sapiens) (UniProt Q7KZI7)", "assay": "Inhibition of recombinant human full length GST-tagged MARK2 expressed in insect cells at 2 uM using Ser/Thr 21 as substrate measured after 1 hr by Z'-LYTE assay relative to control", "details": "Insect cell"}, "[13]": {"biological_target": "Serine/threonine-protein kinase PAK 5 (Homo sapiens) (UniProt Q9P286)", "sequence (Q9P286 whole entry, looked up, the tested form may be a part)": "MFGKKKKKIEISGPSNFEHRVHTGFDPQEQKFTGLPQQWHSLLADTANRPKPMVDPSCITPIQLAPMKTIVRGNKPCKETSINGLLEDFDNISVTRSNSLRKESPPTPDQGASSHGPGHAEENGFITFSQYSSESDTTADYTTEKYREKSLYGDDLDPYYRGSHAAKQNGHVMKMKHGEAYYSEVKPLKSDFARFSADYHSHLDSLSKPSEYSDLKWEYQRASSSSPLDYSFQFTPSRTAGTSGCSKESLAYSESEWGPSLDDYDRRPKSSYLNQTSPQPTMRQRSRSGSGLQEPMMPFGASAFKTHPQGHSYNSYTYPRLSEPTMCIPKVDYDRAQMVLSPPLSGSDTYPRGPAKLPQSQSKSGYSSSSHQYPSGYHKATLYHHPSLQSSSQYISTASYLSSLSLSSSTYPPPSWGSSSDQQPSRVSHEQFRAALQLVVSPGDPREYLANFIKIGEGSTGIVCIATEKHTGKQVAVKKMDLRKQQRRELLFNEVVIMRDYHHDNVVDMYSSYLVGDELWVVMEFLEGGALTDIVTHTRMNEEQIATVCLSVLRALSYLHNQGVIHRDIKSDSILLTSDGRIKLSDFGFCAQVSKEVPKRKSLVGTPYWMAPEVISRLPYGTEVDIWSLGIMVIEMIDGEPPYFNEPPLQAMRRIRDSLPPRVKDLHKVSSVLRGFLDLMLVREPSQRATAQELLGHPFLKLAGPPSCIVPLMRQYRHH", "assay": "Inhibition of recombinant human His-tagged PAK7 (425-719 residues) expressed in baculovirus expression system at 2 uM using Ser/Thr 20 as substrate measured after 1 hr by Z'-LYTE assay relative to control"}, "[14]": {"biological_target": "Protein kinase C eta type (Homo sapiens) (UniProt P24723)", "sequence (P24723 whole entry)": "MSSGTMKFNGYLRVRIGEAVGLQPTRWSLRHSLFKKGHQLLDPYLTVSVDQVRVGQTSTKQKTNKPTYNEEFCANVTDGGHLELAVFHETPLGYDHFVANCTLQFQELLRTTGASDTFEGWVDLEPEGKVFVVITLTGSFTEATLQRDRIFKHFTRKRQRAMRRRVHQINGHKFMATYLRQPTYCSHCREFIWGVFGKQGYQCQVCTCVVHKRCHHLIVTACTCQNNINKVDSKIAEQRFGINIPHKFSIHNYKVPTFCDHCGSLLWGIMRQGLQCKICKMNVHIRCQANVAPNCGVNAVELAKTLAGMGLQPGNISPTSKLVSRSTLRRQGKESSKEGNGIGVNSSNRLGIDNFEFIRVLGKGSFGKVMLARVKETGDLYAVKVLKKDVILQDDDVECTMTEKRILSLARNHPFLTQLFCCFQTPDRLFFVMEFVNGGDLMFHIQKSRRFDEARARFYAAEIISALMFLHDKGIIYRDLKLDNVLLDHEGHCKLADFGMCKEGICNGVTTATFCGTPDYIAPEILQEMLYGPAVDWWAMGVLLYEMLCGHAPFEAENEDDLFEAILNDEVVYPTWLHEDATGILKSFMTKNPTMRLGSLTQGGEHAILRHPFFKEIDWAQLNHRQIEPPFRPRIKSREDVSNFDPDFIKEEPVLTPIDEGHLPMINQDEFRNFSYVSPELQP", "assay": "Inhibition of recombinant human PRKCH at 2 uM using Ser/Thr 07 as substrate measured after 1 hr by Z'-LYTE assay relative to control"}, "[15]": {"biological_target": "Protein kinase C theta type (Homo sapiens) (UniProt Q04759)", "assay": "Inhibition of recombinant human PRKCQ at 2 uM using Ser/Thr 07 as substrate measured after 1 hr by Z'-LYTE assay relative to control"}, "[16]": {"biological_target": "SRSF protein kinase 2 (Homo sapiens) (UniProt P78362)", "assay": "Inhibition of recombinant human full length GST-tagged SRPK2 expressed in insect cells at 2 uM using Ser/Thr 07 as substrate measured after 1 hr by Z'-LYTE assay relative to control", "details": "Insect cell"}, "MDA-MB-361 [17]": {"system": "MDA-MB-361", "assay": "Antiproliferative activity against human MDA-MB-361 cells assessed as cell growth inhibition incubated for 2 days by MTS assay", "assay_type": "functional, cell-based", "details": "MDA-MB-361, 48 h"}, "MDA-MB-468": {"system": "MDA-MB-468", "assay": "Induction of apoptosis in human MDA-MB-468 cells assessed as increase in G1 phase at 1 micromol/L incubated for 24 hrs by FACS analysis", "assay_type": "functional, cell-based", "details": "dose 1.0 µmol/L"}, "U-87 MG [18]": {"system": "U-87 MG", "assay": "Induction of apoptosis in human U-87MG cells assessed as reduction in S phase at 1 micromol/L incubated for 24 hrs by FACS analysis", "assay_type": "functional, cell-based", "details": "U-87MG ATCC, dose 1.0 µmol/L"}, "MDA-MB-361 [19]": {"system": "MDA-MB-361", "assay": "Induction of apoptosis in HER2 hyperactive human MDA-MB-361 cells assessed as cell death at 0.001 to 100 micromol/L incubated for 24 hrs by FACS analysis", "assay_type": "functional, cell-based", "details": "dose 0.001-100 µmol/L"}, "MDA-MB-361 [20]": {"system": "MDA-MB-361", "assay": "Induction of apoptosis in human MDA-MB-361 cells assessed as PARP cleavage at 0.05 to 5 micromol/L incubated for 48 hrs by Western blot analysis", "assay_type": "functional, cell-based", "details": "dose 0.05-5 µmol/L"}, "LNCaP": {"system": "LNCaP", "assay": "Induction of apoptosis in human LNCaP cells assessed as increase in PARP cleavage at 0.3 to 3 micromol/L incubated for 48 hrs by Western blot analysis", "assay_type": "functional, cell-based", "details": "dose 0.3-3 µmol/L"}, "U-87 MG [21]": {"system": "U-87 MG", "assay": "Antitumor activity against human U-87MG cells assessed as lactate production incubated for 24 hrs", "assay_type": "functional, cell-based", "details": "U-87MG ATCC, dose 0.01-10 µmol/L"}, "MDA-MB-361 [22]": {"system": "MDA-MB-361", "assay": "Antitumor activity against human MDA-MB-361 cells xenografted in female nude mouse model assessed as suppression in P-AKT at S473 level at 50 mg/kg, iv administered once a week and measured at least 8 hrs by immunoblot analysis", "assay_type": "functional, organism-based"}, "A549": {"system": "A549", "assay": "Antitumor activity against human A549 cells xenografted in female nude mouse model assessed as suppression in tumor growth at 25 mg/kg, po qd administered as 5 days on/2 days off regimen for 4 cycles relative to control", "assay_type": "functional", "details": "time 28 day"}, "[23]": {"biological_target": "Serine/threonine-protein kinase mTOR (Homo sapiens, UniProt P42345)", "details": "HEK293, dose 0.1-1 nM, time 20.0 min"}, "mTORC2 (Homo sapiens)": {"biological_target": "mTORC2 (Homo sapiens) (UniProt P42345+Q6R327+Q9BVC4+Q9BPZ7)", "details": "PC3MM2, dose 0.1-1 µM, time 6.0 hrs"}}, "note": "Active and inactive are the calls of the source. The rule behind the calls is not given here."}
{"smiles": "CNC(=O)Nc1ccc(-c2nc(N3CC4CCC(C3)O4)c3cnn(C4CCC5(CC4)OCCO5)c3n2)cc1", "values": [{"measurement": "IC50", "setting": "[1]", "value": "> 10000", "unit": "nM"}, {"measurement": "inhibition", "setting": "[2]", "value": 11, "unit": "%"}, {"measurement": "inhibition", "setting": "[3]", "value": 0, "unit": "%"}, {"measurement": "inhibition", "setting": "[4]", "value": 2, "unit": "%"}, {"measurement": "inhibition", "setting": "[5]", "value": 0, "unit": "%"}, {"measurement": "inhibition", "setting": "[6]", "value": 5, "unit": "%"}, {"measurement": "inhibition", "setting": "[7]", "value": -4, "unit": "%"}, {"measurement": "inhibition", "setting": "[8]", "value": 1, "unit": "%"}, {"measurement": "inhibition", "setting": "[9]", "value": 3, "unit": "%"}, {"measurement": "inhibition", "setting": "[10]", "value": 7, "unit": "%"}, {"measurement": "inhibition", "setting": "[11]", "value": 11, "unit": "%"}, {"measurement": "inhibition", "setting": "[12]", "value": 12, "unit": "%"}, {"measurement": "inhibition", "setting": "[13]", "value": 11, "unit": "%"}, {"measurement": "inhibition", "setting": "[14]", "value": 14, "unit": "%"}, {"measurement": "inhibition", "setting": "[15]", "value": 5, "unit": "%"}, {"measurement": "inhibition", "setting": "[16]", "value": 1, "unit": "%"}, {"measurement": "IC50", "setting": "MDA-MB-361 [17]", "value": 50, "unit": "nM"}, {"measurement": "Activity", "setting": "MDA-MB-468", "value": "Active"}, {"measurement": "Activity", "setting": "U-87 MG [18]", "value": "Active"}, {"measurement": "Activity", "setting": "MDA-MB-361 [19]", "value": "Active"}, {"measurement": "Activity", "setting": "MDA-MB-361 [20]", "value": "Active"}, {"measurement": "Activity", "setting": "LNCaP", "value": "Active"}, {"measurement": "Activity", "setting": "U-87 MG [21]", "value": "Dose-Dependent Effect"}, {"measurement": "Activity", "setting": "MDA-MB-361 [22]", "value": "Active"}, {"measurement": "Activity", "setting": "A549", "value": 100, "unit": "%"}, {"measurement": "inhibition", "setting": "[23]", "value": "Active"}, {"measurement": "inhibition", "setting": "mTORC2 (Homo sapiens)", "value": "inactive"}]}
